How the values were obtained:
[1] = storage stability of 40% aqueous solution (dissolution state after storage); format: physicochemical; conditions: 40% aqueous solution stored at 50° C. for 1 week, then diluted to 1%
Procedure: Each of the powders obtained in Examples 1, 10 and 13 and Comparative Examples 1 and 3 was dissolved to obtain a 40% aqueous solution. The solution was stored at 50° C. for 1 week and then diluted to 1% and the dissolution state of the resulting diluted solution was observed.

| SMILES | dissolution state of the resulting diluted solution [1] | pH of aqueous solution |
| --- | --- | --- |
| O=C([O-])C[C@H](NCCN[C@@H](CC(=O)[O-])C(=O)[O-])C(=O)[O-].[Fe+3].[Na+] [Example 1, S,S-ethylenediamine-N,N′-disuccinic acid iron sodium salt] | no insoluble material was found |  |
| O=C(O)C[C@H](NCCN[C@@H](CC(=O)O)C(=O)O)C(=O)O [S,S-ethylenediamine-N,N′-disuccinic acid] |  | ~2 |
